Our source for the IC50 values is patent US8461175B2, “1-pyrazolo[4,3-c]isoquinoline derivatives, preparation thereof and therapeutic use thereof” (Sanofi-Aventis, priority 2009, dated 2013).

The test relates to HeLa Cells (ATCC CCL-2). Kind of test: Determination of IC50 for HeLa cells, proliferation by 14C-thymidine incorporation. The class given is cell-based. To be noted: total treatment 96 h. How it is done: Determination of IC50 for HeLa Cells (ATCC CCL-2)
This test is carried out using adherent tumour cell lines. Their proliferation is measured via the amount of ^14C-thymidine incorporated within the cells. These cells are placed in 96-well Cytostar plates with the culture medium and are incubated for 4 h at 37° C.-5% CO2. The products under test are then added and the plates are replaced in the incubator. ^14C-thymidine is added to the medium after 72 h of treatment and the cells are then incubated for 24 h. The incorporation of ^14C-thymidine is measured using a MicroBeta reader (Perkin Elmer) after these 24 h of “pulse”. The total time of treatment of the cells with the product under test is 96 h.
For each assay, the plates are prepared at the cell concentrations employed. The products are tested at 10 concentrations in duplicate. The first concentration is usually 10 μM, but it may vary, as may the degree of dilution, depending on the activity level of the products. The serial dilutions are made in pure DMSO and then each concentration is diluted in the culture medium. All of the products are tested in two independent assays.
• Dulbecco (Gibco 11960-044) • Inactivated foetal calf serum (FCS) (Gibco 10500-056) • Penicillin-Streptomycin-Glutamine (PSG) (Gibco 10378-016) • 96-well Cytostar plate (Amersham RPNQ0162) • DMSO (Sigma D2650) • ^14C-Thymidine (NEN NEC-568)
(Incorporation of labelled thymidine or its analogues reports DNA synthesis.)

The term IC50 denotes the midpoint of a concentration-inhibition curve. In turn, `C#Cc1ccc2c(c1)c(-c1c(F)cccc1F)nc1c(NC3CCN(S(C)(=O)=O)CC3)n[nH]c12` [Example 7, 5-(2,6-difluorophenyl)-3-{[1-(methylsulphonyl)piperidin-4-yl]amino}-7-ethynyl-1H-pyrazolo[4,3-c]isoquinoline] yielded a half-maximal inhibitory concentration (IC50) (Homo sapiens) of 1500 nM.
With `CCS(=O)(=O)N1CCC(Nc2n[nH]c3c2nc(-c2c(F)cccc2F)c2cc(CO)ccc23)CC1` [Example 21], the midpoint of inhibition, the IC50, lay at 338 nM.
Where the note is “Homo sapiens”, `CS(=O)(=O)N1CCC(Nc2n[nH]c3c2nc(-c2c(F)cccc2F)c2cc(C(N)=O)ccc23)CC1` [Example 1, 5-(2,6-difluorophenyl)-3-{[1-(methylsulphonyl)piperidin-4-yl]amino}-1H-pyrazolo[4,3-c]isoquinoline-7-carboxamide] registered an IC50 of 259 nM.
The same measure, in the same setting: the figure for `CS(=O)(=O)N1CCC(Nc2n[nH]c3c2nc(-c2c(F)cccc2F)c2cc(C=O)ccc23)CC1` [Example 15, 5-(2,6-difluorophenyl)-3-{[1-(methylsulphonyl)piperidin-4-yl]amino}-1H-pyrazolo[4,3-c]isoquinoline-7-carbaldehyde] is 488 nM.
The same measure, in the same setting: the value for `CCS(=O)(=O)N1CCC(Nc2n[nH]c3c2nc(-c2c(F)cccc2F)c2cc(C(N)=O)ccc23)CC1` [Example 18, 5-(2,6-difluorophenyl)-3-{[1-(ethylsulphonyl)piperidin-4-yl]amino}-1H-pyrazolo[4,3-c]isoquinolin-7-carboxamide] was 554 nM.
Same read-out and setting: the value for `CS(=O)(=O)N1CCC(Nc2n[nH]c3c2nc(-c2c(F)cccc2F)c2cc(C#N)ccc23)CC1` [Example 12, 5-(2,6-difluorophenyl)-3-{[1-(methylsulphonyl)piperidin-4-yl]amino}-1H-pyrazolo[4,3-c]isoquinoline-7-carbonitrile] was 899 nM; that for `CCS(=O)(=O)N1CCC(Nc2n[nH]c3c2nc(-c2c(F)cccc2F)c2cc(C#N)ccc23)CC1` [Example 13, 5-(2,6-difluorophenyl)-3-([1-(ethylsulphonyl)piperidin-4-yl]amino}-1H-pyrazolo[4,3-c]isoquinoline-7-carbonitrile] was 954 nM.
As to `CS(=O)(=O)N1CCC(Nc2n[nH]c3c2nc(-c2c(F)cccc2F)c2cc(CF)ccc23)CC1` [Example 17], the IC50 was found to be 263 nM. In other words, the sub-micromolar range.
Take `CS(=O)(=O)N1CCC(Nc2n[nH]c3c2nc(-c2c(F)cccc2F)c2cc(C(N)=S)ccc23)CC1` [Example 9, 5-(2,6-difluorophenyl)-3-{[1-(methylsulphonyl)piperidin-4-yl]amino}-1H-pyrazolo[4,3-c]isoquinoline-7-carbothioamide]: under “Homo sapiens”, the IC50 turned out to be 597 nM.
As for `CS(=O)(=O)N1CCC(Nc2n[nH]c3c2nc(-c2c(F)cccc2F)c2cc(F)ccc23)CC1` [Example 6, 5-(2,6-difluorophenyl)-7-fluoro-3-{[1-(methylsulphonyl)piperidin-4-yl]amino}-1H-pyrazolo[4,3-c]isoquinoline], the IC50 (Homo sapiens) was 890 nM.
Still for that read-out and setting: the value for `CS(=O)(=O)N1CCC(Nc2n[nH]c3c2nc(-c2c(F)cccc2F)c2cc(-c4cn[nH]c4)ccc23)CC1` [Example 24, 5-(2,6-difluorophenyl)-N-[1-(methylsulphonyl)piperidin-4-yl]-7-(1H-pyrazol-4-yl)-1H-pyrazolo[4,3-c]isoquinolin-3-amine] was 2120 nM.
Regarding `NS(=O)(=O)N1CCC(Nc2n[nH]c3c2nc(-c2c(F)cccc2F)c2cc(C=NO)ccc23)CC1` (mixture of isomers) [Example 23, 4-({5-(2,6-difluorophenyl)-7-[(E/Z)-(hydroxyimino)methyl]-1H-pyrazolo[4,3-c]isoquinolin-3-yl}amino)piperidine-1-sulphonamide], the IC50 amounted to 126 nM.
As for `CCS(=O)(=O)N1CCC(Nc2n[nH]c3c2nc(-c2c(F)cccc2F)c2cc(C=O)ccc23)CC1` [Example 19, 5-(2,6-difluorophenyl)-3-{[1-(ethylsulphonyl)piperidin-4-yl]amino}-1H-pyrazolo[4,3-c]isoquinoline-7-carbaldehyde], for the setting “Homo sapiens”, the IC50 came out at 451 nM.
The same measure, in the same setting: the value for `NS(=O)(=O)N1CCC(Nc2n[nH]c3c2nc(-c2c(F)cccc2F)c2cc(F)ccc23)CC1` [Example 28, 4-{[5-(2,6-difluorophenyl)-7-fluoro-1H-pyrazolo[4,3-c]isoquinolin-3-yl]amino}piperidine-1-sulphonamide] was 230 nM.
As for `CS(=O)(=O)N1CCC(Nc2n[nH]c3c2nc(-c2c(F)cccc2F)c2cc(CO)ccc23)CC1` [Example 3], the IC50 was 248 nM.
Take `NC(=O)c1ccc2c(c1)c(-c1c(F)cccc1F)nc1c(NC3CCN(S(=O)(=O)C(F)(F)F)CC3)n[nH]c12` [Example 4, 5-(2,6-difluorophenyl)-3-{[1-(trifluoromethanesulphonyl)piperidin-4-yl]amino}-1H-pyrazolo[4,3-c]isoquinoline-7-carboxamide]: inhibition (Homo sapiens) was half-maximal at 789 nM (IC50).
On the same count and under the same terms, the value for `N#Cc1ccc2c(c1)c(-c1c(F)cccc1F)nc1c(NC3CCN(S(N)(=O)=O)CC3)n[nH]c12` [Example 26, 4-{[7-cyano-5-(2,6-difluorophenyl)-1H-pyrazolo[4,3-c]isoquinolin-3-yl]amino}piperidine-1-sulphonamide] was 1660 nM; that for `C=Cc1ccc2c(c1)c(-c1c(F)cccc1F)nc1c(NC3CCN(S(C)(=O)=O)CC3)n[nH]c12` [Example 5, 5-(2,6-difluorophenyl)-3-{[1-(methylsulphonyl)piperidin-4-yl]amino}-7-vinyl-1H-pyrazolo[4,3-c]isoquinoline] was 2580 nM; that for `NC(=O)c1ccc2c(c1)c(-c1c(F)cccc1F)nc1c(NC3CCN(S(N)(=O)=O)CC3)[nH]nc12` [Example 22, 5-(2,6-difluorophenyl)-3-[(1-sulphamoylpiperidin-4-yl)amino]-2H-pyrazolo[4,3-c]isoquinoline-7-carboxamide] was 411 nM.
Same read-out and setting: the figure for `CCS(=O)(=O)N1CCC(Nc2n[nH]c3c2nc(-c2c(F)cccc2F)c2cc(C=NO)ccc23)CC1` [Example 20, 5-(2,6-difluorophenyl)-3-{[1-(ethylsulphonyl)piperidin-4-yl]amino}-1H-pyrazolo[4,3-c]isoquinoline-7-carbaldehyde oxime] is 138 nM.
On the same count and under the same terms, the figure for `NS(=O)(=O)N1CCC(Nc2n[nH]c3c2nc(-c2c(F)cccc2F)c2cc(CO)ccc23)CC1` [Example 27, 4-{[5-(2,6-difluorophenyl)-7-(hydroxymethyl)-1H-pyrazolo[4,3-c]isoquinolin-3-yl]amino}piperidine-1-sulphonamide] is 456 nM; for `COC(=O)c1ccc2c(c1)c(-c1c(F)cccc1F)nc1c(NC3CCN(S(C)(=O)=O)CC3)n[nH]c12` [Example 8, Methyl 5-(2,6-difluorophenyl)-3-{[1-(methylsulphonyl)piperidin-4-yl]amino}-1H-pyrazolo[4,3-c]isoquinoline-7-carboxylate] it is 7280 nM.
`N#Cc1ccc2c(c1)c(-c1c(F)cccc1F)nc1c(NC3CCN(S(=O)(=O)C4CC4)CC3)n[nH]c12` [Example 11, 5-(2,6-difluorophenyl)-3-{[1-(cyclopropylsulphonyl)piperidin-4-yl]amino}-1H-pyrazolo[4,3-c]isoquinoline-7-carbonitrile] registered an IC50 (Homo sapiens) of 909 nM.
Same read-out and setting: the figure for `CS(=O)(=O)N1CCC(Nc2n[nH]c3c2nc(-c2c(F)cccc2F)c2cc(C=NO)ccc23)CC1` [Example 2, 5-(2,6-difluorophenyl)-3-{[1-(methylsulphonyl)piperidin-4-yl]amino}-1H-pyrazolo[4,3-c]isoquinoline-7-carbaldehyde oxime] is 100 nM; for `CS(=O)(=O)N1CCC(Nc2n[nH]c3c2nc(-c2c(F)cccc2F)c2cc(-c4cn[nH]n4)ccc23)CC1` [Example 25, 5-(2,6-difluorophenyl)-N-[1-(methylsulphonyl)piperidin-4-yl]-7-(2H-1,2,3-triazol-4-yl)-1H-pyrazolo[4,3-c]isoquinolin-3-amine] it is 2280 nM.
For the compound `NC(=O)c1ccc2c(c1)c(-c1c(F)cccc1F)nc1c(NC3CCN(S(=O)(=O)C4CC4)CC3)n[nH]c12` [Example 14, 5-(2,6-difluorophenyl)-3-{[1-(cyclopropylsulphonyl)piperidin-4-yl]amino}-1H-pyrazolo[4,3-c]isoquinoline-7-carboxamide], half-maximal inhibition (Homo sapiens) (IC50) required 413 nM. This IC50 is about 5.5-fold lower than that of the compound before.
In turn, `CS(=O)(=O)N1CCC(Nc2n[nH]c3c2nc(-c2c(F)cccc2F)c2ccccc23)CC1` [Example 10] gave an IC50 of 2040 nM.
Take `CS(=O)(=O)N1CCC(Nc2n[nH]c3c2nc(-c2c(F)cccc2F)c2cc(C(=N)NO)ccc23)CC1` [Example 16, 5-(2,6-difluorophenyl)-N-hydroxy-3-{[1-(methylsulphonyl)piperidin-4-yl]amino}-1H-pyrazolo[4,3-c]isoquinoline-7-carboximidamide]: under “Homo sapiens”, the IC50 worked out at 2350 nM.
